Reference: US7368428B2, “Compositions and methods for restoring sensitivity of tumor cells to antitumor therapy and inducing apoptosis” (A&G Pharmaceutical, Inc., priority 2003, dated 2008)
Structures can show the parent of a compound that is named as a salt.

Assays:
[1] = tested on: tamoxifen resistant MCF-7 cells; test: PARP cleavage Western blot (apoptosis) in tamoxifen resistant MCF-7 cells; type: cell-based; conditions: agent alone, FIG. 8
From the text: (§1) The present invention also provides methods of inducing apoptosis comprising administering a GP88 antagonist to a tumor cell. Apoptosis can be induced in all tumor cell types including, but not limited to, neuroblastoma, glioblastoma, astrocytoma, sarcomas, and cancers of the prostate, blood, cerebrospinal fluid, liver, kidney, breast, head and neck, pharynx, thyroid, pancreas, stomach, colon, colorectal, uterus, cervix, bone, bone marrow, testes, brain, neural tissue, ovary, skin, and lung. Apoptosis can be detected in tumor cells by a variety of techniques including, but not limited to for example, detection of Bcl-2 levels or detection of the PARP cleavage product, DNA ladder, and production of apoptotic cells. PARP or poly(ADP-ribose) polymerase is a nuclear binding protein that detects DNA strand breaks and participates in DNA repair. Cleavage of PARP is a hallmark of caspases-dependent apoptosis. When apoptosis takes place, the 116 kDa intact PARP is cleaved in two fragments, 85 kDa and 25 kDa. […]
(§2) MCF-7 cells or O4 cells were seeded at a density of 7×10^5 cells in 60-mm dish in DMEM/F12 supplemented with 5% FBS. […] Intact and cleaved forms of PARP were detected using a mouse monoclonal anti-PARP antibody from Oncogene Research (San Diego, Calif.). α-Actin was used for normalizing the loading.

[2] = tested on: O4 cells (GP88 overexpressing cells); test: tumor growth of O4 cells in ovariectomized nude mice; type: in vivo
From the text: Athymic ovariectomized female nude mice were implanted with an estradiol pellet one day before being injected (S.C) with either MCF-7 cells or O4 cells. After 10 days when the tumors were visible, the mice received either a placebo pellet or tamoxifen pellet. Tumor growth was monitored for 45 days. At the end of the experiments, mice were euthanized and the tumors were excised and evaluated. […] In contrast, tumor volume in mice with tumor induced by O4 cells and untreated with tamoxifen increased from 75 mm^3 to 150 mm^3 in 45 days. Tamoxifen treatment of tumors overexpressing GP88 increased tumor volume more than 4 times while tumor volume of untreated GP88 overexpressing tumors increased by 2 times.

Bcl-2 [3] = test: Bcl-2 mRNA transcript RT-PCR in MCF-7 cells; type: cell-based; conditions: all concentrations tested (0 to 2 μm tamoxifen), FIG. 6
From the text: (§3) Apoptosis is controlled by the ratio of apoptotic to anti-apoptotic factors, particularly Bcl-2, bcl-xl and bax. […] Zhang et al., Clin. Cancer Res. 5: 2971-7, 1999; Cameron et al., Eur. J. Cancer 36: 845-51, 2000. Alteration of Bcl-2 expression levels changes the bax:Bcl-2 ratio and alters susceptibility to apoptosis. O4 cells are MCF-7 cells transformed with a GP88 expression construct to overexpress GP88. Serrero et al., Proc. Natl. Acad. Sci. U.S.A. 97: 3993-8, 2000.
(§4) GP88 overexpression blocks down-regulation of Bcl-2 mRNA transcript in response to tamoxifen treatment. MCF-7 cells and MCF-7 cells overexpressing GP88 (O4 cells) were treated with 0 to 2 μm tamoxifen. FIG. 6. 5 μg of total RNA was reverse transcribed into single strand cDNA by Super Script II (BRL, Gaithersburg, Md.) using 20 ng random hexamer (Gibco) as primer. The reverse transcription reaction was carried out for 1 h at 42 C in […] Tris-HCl (pH8.3), 2.5 mM MgCl2, 50 mM KCl, DTT 0.01 M and dNTP (each 0.5 mM). A total of 30-35 PCR cycles depending on the gene amplified were performed, followed by electrophoresis on 1% agarose gel. The specific primer pairs used were as follows: for glyceraldehyde 3-phosphate dehydrogenase (GAPDH): forward primer 5′ […] 3′ (SEQ ID NO: 9), reverse primer, 5′ […] 3′ (SEQ ID NO: 10); for Bcl-2: forward primer 5′ […] 3′ (SEQ ID NO: 11), reverse primer 5′ […] […]

[4] = tested on: MCF-7 breast carcinoma cells; test: PARP cleavage Western blot (apoptosis) in MCF-7 cells; type: cell-based; conditions: FIG. 5; for 85 kDa PARP cleavage product: agent alone
From the text: Tamoxifen-induced apoptosis is blocked in tumor cells overexpressing GP88. FIG. 5 is a western blot measuring the level of the PARP cleavage product (85 kDa band) in MCF-7 breast carcinoma cells treated with tamoxifen, tamoxifen+GP88, tamoxifen+estradiol, GP88, and a control. […] Tamoxifen-induced apoptosis was blocked by treatment with estradiol, a compound known to block tamoxifen-induced apoptosis, as shown by the decrease in the 85 kDa band in the lane labeled “Tamoxifen+estradiol.” Tamoxifen-induced apoptosis was blocked by treatment with GP88 to the same extent as treatment by estradiol.
as §1, with “kDa. Detection of intact and cleaved forms of PARP by Western Blot analysis with anti-PARP antibody has been established as an apoptosis assay. Duriez et al., Biochem Cell Biol. 75: 337-49, 1997.” for “kDa.”
as §2

Bcl-2 [5] = test: Bcl-2 mRNA transcript RT-PCR in O4 cells; type: cell-based; conditions: even at elevated doses, FIG. 6
From the text: as §3, §4

cyclin D1 = cyclin D1 expression (FIG. 11 lanes); type: cell-based
From the text: Tumors progress through various stages of growth and maturation leading to increased mobility of the tumor through the body. Therefore, tumor cells can be targeted at several stages during the progression of tumor growth and maturation. For example, GP88 antagonists inhibit tumor cell growth and proliferation. For example, GP88 induces expression of cyclin D1, a cell cycle regulatory protein involved in the growth and proliferation of tumor cells.

In the case of `CC/C(=C(\c1ccccc1)c1ccc(OCCN(C)C)cc1)c1ccccc1` [tamoxifen, tamoxifen citrate], the “cleavage of PARP” value [1] is reported as “does not cleave PARP”, the “increase of tumor volume” value ([2]; O4 cell tumors (overexpressing GP88), tamoxifen treatment, 45 days) is reported as “more than 4 times” and the “tumor volume after 45 days” value ([2]; O4 cell tumors, ovariectomized nude mice with estradiol pellet, tamoxifen pellet, after 45 days, FIG. 9) is reported as “about 225 mm^3”. The “tumor volume at start” value ([2]; O4 cell tumors, ovariectomized nude mice with estradiol pellet, tamoxifen pellet, start value, FIG. 9) was 50 mm^3, the Bcl-2 transcript (Bcl-2 [3]) was “induced down-regulation” and the “85 kDa PARP cleavage product” value [4] was “significantly increased”. The Bcl-2 transcript (Bcl-2 [5]) was “failed to down regulate”.
In the case of “GP88: 88 kDa glycoprotein growth factor, epithelin/granulin precursor”, the “tamoxifen-induced apoptosis (85 kDa PARP cleavage product)” value ([4]; agent added together with tamoxifen) is reported as “blocked”, the “85 kDa PARP cleavage product” value [4] is reported as “not in the presence of GP88” and the “expression of cyclin D1” value (cyclin D1) is reported as “stimulates”.
